Measured values as given in US20200330484A1, “STEROIDAL COMPOUNDS FOR TREATMENT OF MENTAL AND NEUROLOGICAL DISORDERS” (USTAV ORGANICKE CHEMIE A BIOCHEMIE AV CR, V.V.I., priority 2017, published 2020).
Read-outs that look alike come from different tables or passages of the source. Values belong to the compound of their own block, whether it stands above or below them.

Assays:
hGluN1/hGluN2B(V558I) [1] = molecular target: T1, hGluN1/hGluN2B(V558I) (Homo sapiens, UniProt Q05586+Q13224, V558I); conditions: read-out: Glutamate EC50; calculated from ratio of responses to two glutamate concentrations, h fixed at 1.4
hGluN1/hGluN2B(V618G) [2] = molecular target: T2, hGluN1/hGluN2B(V618G) (Homo sapiens, UniProt Q05586+Q13224, V618G); conditions: read-out: Glutamate EC50; calculated from ratio of responses to two glutamate concentrations, h fixed at 1.4
hGluN1/hGluN2B(G820A) [3] = molecular target: T3, hGluN1/hGluN2B(G820A) (Homo sapiens, UniProt Q05586+Q13224, G820A); conditions: read-out: Glutamate EC50; calculated from ratio of responses to two glutamate concentrations, h fixed at 1.4
hGluN1/hGluN2B(L825V) [4] = molecular target: T4, hGluN1/hGluN2B(L825V) (Homo sapiens, UniProt Q05586+Q13224, L825V); conditions: read-out: Glutamate EC50; calculated from ratio of responses to two glutamate concentrations, h fixed at 1.4
hGluN1/hGluN2B(V558I) [5] = molecular target: T1, hGluN1/hGluN2B(V558I); assay: cell-based; conditions: read-out: Glycine EC50
hGluN1/hGluN2B(N615I) = hGluN1/hGluN2B(N615I) (Homo sapiens, UniProt Q05586+Q13224, N615I); assay: cell-based; conditions: read-out: Glycine EC50
hGluN1/hGluN2B(V618G) [6] = molecular target: T2, hGluN1/hGluN2B(V618G); assay: cell-based; conditions: read-out: Glycine EC50
hGluN1/hGluN2B(E657G) = hGluN1/hGluN2B(E657G) (Homo sapiens, UniProt Q05586+Q13224, E657G); assay: cell-based; conditions: read-out: Glycine EC50
hGluN1/hGluN2B(G820A) [7] = molecular target: T3, hGluN1/hGluN2B(G820A); assay: cell-based; conditions: read-out: Glycine EC50
hGluN1/hGluN2B(L825V) [8] = molecular target: T4, hGluN1/hGluN2B(L825V); assay: cell-based; conditions: read-out: Glycine EC50
[9] = molecular target: T5, hGluN1/hGluN2B (WT) receptors (Homo sapiens, UniProt Q05586+Q13224); assay: Whole-cell patch clamp, steroid potentiation of responses tonically activated by low concentration of glutamate; format: cell-based; conditions: PA-But 15 μmol · l^−1; HEK293T; mean ± SEM
T5 construct: expressed in transfected cells; host or cells: HEK293T
Protocol: (§1) Human embryonic kidney-293T (HEK293T) cells were used for transfection of human genes encoding for NMDA receptor subunits: hGluN1 (GenBank, accession number NP_015566) and hGluN2B (GenBank, accession number NP_000825). Equal amounts ([…]) of DNA encoding for GluN1 and GluN2B were mixed with 0.9 μl Matra-A Reagent (IBA, Gottingen, Germany) and added to confluent HEK293T cells. After trypsinization, the cells were resuspended in Opti-MEM I (ThermoFisher Scientific, Paisley, UK; Cat. #31985062) containing 1% fetal bovine serum supplemented with 15 mmol·l^−1 MgCl2, 1 mmol·l^−1 D,L-2-amino-5-phosphonopentanoic acid (D,L-AP5), and 1 μmol.l^−1 ketamine.
(§2) Mutations in the GluN2B subunit were made using the QuickChange Site-Directed Mutagenesis Kit (Agilent Technologies, Santa Clara, Calif., USA) according to the manufacturer's instructions. Mutated cDNA was transformed into ultra-competent XL1Gold E. coli cells, multiplied, positive clones were selected, and the isolated plasmide DNA was verified by sequencing (SEQme s.r.o., Dobris, Czechia, or GATC Biotech AG, Constance, Germany) All mutations were verified by DNA sequencing. Transfected HEK293T cells were identified by GFP epifluorescence. The amino acids are numbered on the basis of the full-length protein, including the signal peptide.
(§3) Experiments were performed 12-36 h after the end of transfection on cultured HEK293T cells transfected with vectors containing hGluN1/hGluN2B/GFP. Whole-cell voltage clamp current recordings were performed at room temperature (21-25° C.) at a holding potential of −60 mV using a patch-clamp amplifier (Axopatch 200B; Molecular Devices, Sunnyvale, Calif., USA) after a capacitance and series resistance (<10 MΩ) compensation of 80-90%. Data were collected (low-pass filtered at 2 kHz and sampled at 10 kHz) and analyzed using pClamp 10 (Molecular Devices). Patch pipettes (3-5 MΩ) were filled with an intracellular solution (ICS) containing (in mmol·l^−1): 120 gluconic acid, 15 CsCl, 10 BAPTA, 10 HEPES, 3 MgCl2, 1 CaCl2, and 2 ATP-Mg salt (pH-adjusted to 7.2 with CsOH) and extracellular solution (ECS) contained the following (in mmol·l^−1): 160 NaCl, 2.5 KCl, 10 HEPES, 10 glucose, 0.2 EDTA, and 0.7 CaCl2) (pH-adjusted to 7.3 with NaOH). […] The tested steroid solutions were made from freshly prepared 20 mmol·l^−1 20-oxopregn-5en-3β-yl sulfate (PE-S; pregnenolone sulfate), 5 mmol·l^−1 androst-5-en-3β-yl hemisuccinate (AND-hSuc), or 10 mmol·l^−1 20-oxo-5β-pregnan-3-yliden-4′-but-2-enoic acid stock in dimethyl sulfoxide (DMSO). The final dilution to ECS was made at 50° C. and followed by 1 min sonication (SONOREX DIGITEC DT 100/H, BADELIN electronic, Berlin, Germany) The same concentration of DMSO was added to all extracellular solutions. Control and test solution applications were made with a microprocessor-controlled multibarrel fast-perfusion system. The solution exchange rate was ˜15 ms. The following mutations of the gene encoding for hGluN2B subunit (GRIN2B) were tested: P553L; V558I; W607C; N615I; V618G; S628F; E657G; G820E; G820A; M824R; L825V. These mutations are located in the preM1, M2, M3, and M4 transmembrane domains of the receptor (FIG. 1).

[10] = test system: C57BL/6 mice (control) and BALB/c mice; assay: Three-chamber social behavior test; format: in vivo; conditions: intraperitoneal, 1 and 10 mg/kg, dissolved in cyclodextrine
Excerpt: In in vivo experiments, the effect of the steroid 20-oxo-5β-pregnan-3-ylidene-4′-but-2-enoic acid on C57BL/6 mice (control) and BALB/c mice was compared. BALB/c mice show a higher rate of anxiety behavior and lower socialization, which is considered to be a certain equivalent of autistic manifestations in humans.

hGluN1/hGluN2B(L825V) [11] = molecular target: T4, hGluN1/hGluN2B(L825V); assay: Whole-cell patch clamp, steroid potentiation of responses tonically activated by low concentration of glutamate; format: cell-based; design: expressed in transfected cells; host or cells: HEK293T; conditions: PA-But 15 μmol · l^−1; HEK293T; mean ± SEM
Protocol: as §1, §2, §3

hGluN1/hGluN2B(V618G) [12] = molecular target: T2, hGluN1/hGluN2B(V618G); assay: as above; format: cell-based; design: expressed in transfected cells; host or cells: HEK293T; conditions: PA-But 15 μmol · l^−1; HEK293T; mean ± SEM
Protocol: as §1, §2, §3

hGluN1/hGluN2B(G820A) [13] = molecular target: T3, hGluN1/hGluN2B(G820A); assay: as above; format: cell-based; design: The amino acids are numbered on the basis of the full-length protein, including the signal peptide; expressed in transfected cells; host or cells: HEK293T; conditions: PA-But 15 μmol · l^−1; HEK293T; mean ± SEM
Protocol: as §1, §2, §3

hGluN1/hGluN2B(V558I) [14] = molecular target: T1, hGluN1/hGluN2B(V558I); assay: as above; format: cell-based; design: The amino acids are numbered on the basis of the full-length protein, including the signal peptide; expressed in transfected cells; host or cells: HEK293T; conditions: PA-But 15 μmol · l^−1; HEK293T; mean ± SEM
Protocol: as §1, §2, §3

Compound: N[C@@H](CCC(=O)O)C(=O)O [Glutamate, glutamate]
potency estimated from few doses (hGluN1/hGluN2B(V558I) [1]): 1600 ± 300 nM | potency estimated from few doses (hGluN1/hGluN2B(V618G) [2]): 1800 ± 200 nM | potency estimated from few doses (hGluN1/hGluN2B(G820A) [3]): 1500 ± 300 nM | potency estimated from few doses (hGluN1/hGluN2B(L825V) [4]): 1600 ± 200 nM

potency estimated from few doses (hGluN1/hGluN2B(V558I) [5]): 220 ± 50 nM | potency estimated from few doses (hGluN1/hGluN2B(N615I)): 310 ± 20 nM | potency estimated from few doses (hGluN1/hGluN2B(V618G) [6]): 270 ± 20 nM | potency estimated from few doses (hGluN1/hGluN2B(E657G)): 390 ± 80 nM | potency estimated from few doses (hGluN1/hGluN2B(G820A) [7]): 200 ± 90 nM | potency estimated from few doses (hGluN1/hGluN2B(L825V) [8]): 160 ± 10 nM
Compound: NCC(=O)O [Glycine, glycine]

Potentiating effect (%) [9]: 212 ± 19 (22) % | Potentiating effect (%) (hGluN1/hGluN2B(L825V) [11]): 577 ± 78 (10)^††; % | Potentiating effect (%) (hGluN1/hGluN2B(V618G) [12]): 67 ± 12 (3)^††; % | Potentiating effect (%) (hGluN1/hGluN2B(G820A) [13]): 7 ± 3 (5)^††; % | Potentiating effect (%) (hGluN1/hGluN2B(V558I) [14]): −9 ± 5 (4)^††; %
Compound: CC(=O)[C@H]1CC[C@H]2[C@@H]3CC[C@@H]4CC(=CC=CC(=O)O)CC[C@]4(C)[C@H]3CC[C@]12C [PA-But, 20-oxo-5β-pregnan-3-ylidene-4′-but-2-enoic acid]
Social behavior (interest in the second mouse cage vs an empty cage) [10]: greater interest in the second mouse cage than in an empty cage
